Assay results: patent US6525059B1, “Substituted pyrazoles as p38 kinase inhibitors” (G. D. Searle & Company, priority 1998, dated 2003)
Several values for one entry are separate records, joined by “and”; a condition that tells them apart may be missing. Equal entries are not always repeated. Structures can show the parent of a compound that is named as a salt. Where two headings read alike, the source gives them in different places.

How the values were obtained:
[1] = biological target: T1, human GST-p38 kinase alpha (Homo sapiens, UniProt Q16539); assay: p38 kinase in vitro assay, second format, phosphorylation of EGFRP with 33P-ATP; type: biochemical; conditions: read-out: p38α Kinase Assay IC50
T1 construct: The coding region of the human p38a cDNA was obtained by PCR-amplification from RNA isolated from the human monocyte cell line THP.1; made in house; host or cells: E. coli DH10B
T1 sequence (Q16539 whole entry): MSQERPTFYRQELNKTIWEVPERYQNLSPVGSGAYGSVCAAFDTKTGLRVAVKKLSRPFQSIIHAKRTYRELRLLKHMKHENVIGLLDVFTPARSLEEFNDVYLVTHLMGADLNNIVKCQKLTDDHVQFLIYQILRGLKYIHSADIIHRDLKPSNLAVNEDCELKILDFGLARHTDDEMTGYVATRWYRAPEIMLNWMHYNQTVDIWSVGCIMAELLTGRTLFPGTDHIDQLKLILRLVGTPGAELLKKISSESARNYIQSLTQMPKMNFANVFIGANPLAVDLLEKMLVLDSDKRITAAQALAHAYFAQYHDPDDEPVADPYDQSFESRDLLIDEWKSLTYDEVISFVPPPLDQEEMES
Method: A second assay format was also employed that is based on p38 kinase alpha induced phosphorylation of EGFRP (epidermal growth factor receptor peptide, a 21 mer) in the presence of ^33P-ATP. Compounds were tested in 10 fold serial dilutions over the range of 100 μM to 0.001 μM in 10% DMSO. Each concentration of inhibitor was tested in triplicate. Compounds were evaluated in 50 μl reaction volumes in the presence of 25 mM Hepes pH 7.5, 10 mM magnesium acetate, 4% glycerol, 0.4% bovine serum albumin, 0.4 mM DTT, 50 μM unlabeled ATP, 25 μg EGFRP (200 μM), and 0.05 uCi gamma ^33P-ATP. Reactions were initiated by addition of 0.09 μg of activated, purified human GST-p38 kinase alpha. Activation was carried out using GST-MKK6 (5:1, p38: MKK6) for one hour at 30° C. in the presence of 50 μM ATP. Following incubation for 60 minutes at room temperature, the reaction was stopped by addition of 150 μl of AG 1×8 resin in 900 mM sodium formate buffer, pH 3.0 (1 volume resin to 2 volumes buffer). The mixture was mixed three times with pipetting and the resin was allowed to settle. A total of 50 μl of clarified solution head volume was transferred from the reaction wells to Microlite-2 plates. 150 μl of Microscint 40 was then added to each well of the Microlite plate, and the plate was sealed, mixed, and counted.

human TNF = assay: TNF inhibition: human whole blood assay; type: cell-based; conditions: Homo sapiens
TNF-α = assay: Rat assay: LPS-challenged rats, serum TNF-α by ELISA; type: in vivo; conditions: Rattus norvegicus, po; for inhibition in vivo at 10 mg/kg: Table 8, dose 10.0 mg/kg; for inhibition in vivo at 3 mg/kg: Table 8, dose 3.0 mg/kg
human p38 kinase alpha = biological target: T2, human p38 kinase alpha (Homo sapiens, UniProt Q16539); assay: p38 kinase in vitro assay, phosphorylation of biotinylated PHAS-I with gamma 32P-ATP; type: biochemical; conditions: read-out: p38 alpha IC50
T2 construct: The coding region of the human p38a cDNA was obtained by PCR-amplification from RNA isolated from the human monocyte cell line THP.1; GST (N); made in house; host or cells: E. coli DH10B
T2 sequence (Q16539 whole entry): as above
In short: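 MKK6-activated human p38α phosphorylates biotinylated PHAS-I with γ-32P-ATP in 25 mM HEPES pH 7.5, 10 mM Mg acetate, 50 μM unlabeled ATP, 1% DMSO, 30 °C for 1 h or overnight. Compounds at 100–0.001 μM (10-fold steps, triplicate); substrate captured on streptavidin filter plates and counted by scintillation.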

[2] = Table 8, human whole blood, LPS, read-out: TNF Inhibition-Human Whole Blood Assay
[3] = Table 8, dose 1.0 mg/kg, read-out: Rat LPS Assay % Inhibition
[4] = Table 8, dose 5.0 mg/kg, read-out: Rat LPS Assay % Inhibition
[5] = read-out: Rat LPS Assay % Inhibition
[6] = Table 9, human whole blood, LPS, read-out: TNF Inhibition-Human Whole Blood Assay
[7] = Table 10, human whole blood, LPS, read-out: TNF Inhibition-Human Whole Blood Assay

| SMILES | IC50 ([1]; Table 8, 10% DMSO) | IC50 (human TNF; [2]) | IC50 ([1]; Table 9, 10% DMSO) | IC50 (human TNF; [6]) | inhibition in vivo at 20 mg/kg (TNF-α; Table 9, dose 20 mg/kg) | further results |
| --- | --- | --- | --- | --- | --- | --- |
| CN1CCN(Cc2n[nH]c(-c3ccc(F)cc3)c2-c2ccncc2)CC1 [A-313, Step 3, 1-[[5-(4-fluorophenyl)-4-(4-pyridinyl)-1H-pyrazol-3-yl]methyl]-4-methylpiperazine] | 370 nM | 120 nM |  |  |  | inhibition in vivo at 20 mg/kg (TNF-α; Table 8, dose 20.0 mg/kg): 96% |
| Fc1ccc(-c2[nH]nc(CN3CCNCC3)c2-c2ccncc2)cc1 [A-314, Step 2, 1-[[5-(4-fluorophenyl)-4-(4-pyridinyl)-1H-pyrazol-3-yl]methyl]-4-piperazine] | 32 nM | 470 nM |  |  |  | inhibition in vivo at 1 mg/kg (TNF-α; [3]): 0%; inhibition in vivo at 5 mg/kg (TNF-α; [4]): 53%; inhibition in vivo at 20 mg/kg (TNF-α; Table 8, dose 20.0 mg/kg): 85% |
| Fc1ccc(-c2n[nH]c(CC3CCNCC3)c2-c2ccncc2)cc1 [Example A-315, 4-[3-(4-fluorophenyl)-5-(4-piperidinylmethyl)-1H-pyrazol-4-yl]pyridine] | 49 nM | 1750 nM |  |  |  |  |
| CN1CCN(c2n[nH]c(-c3ccc(F)cc3)c2-c2ccncc2)CC1 [Example A-317, 1-[5-(4-fluorophenyl)-4-(4-pyridinyl)-1H-pyrazol-3-yl]-4-methylpiperazine, dihydrate] | 70 nM | 450 nM |  |  |  | inhibition in vivo at 10 mg/kg (TNF-α): 69% |
| C#CCn1nc(N2CCNCC2)c(-c2ccncc2)c1-c1ccc(Cl)cc1 [Example A-318, 1-[5-(4-chlorophenyl)-4-(4-pyridinyl)-1-(2-propynyl)-1H-pyrazol-3-yl]piperazine, trihydrochloride monohydrate] | 580 nM and 370 nM and 600 nM | 167 nM |  |  |  | inhibition in vivo at 3 mg/kg (TNF-α; [5]): 54% |
| Clc1ccc(-c2[nH]nc(NC3CCNCC3)c2-c2ccncc2)cc1 [Example A-332, N-[5-(4-chlorophenyl)-4-(4-pyridinyl)-3H-pyrazol-3-yl]-4-piperidineamine, trihydrochloride, monohydrate] | 15 nM and < 100 nM | 450 nM |  |  |  | inhibition in vivo at 1 mg/kg (TNF-α; [3]): 33%; inhibition in vivo at 3 mg/kg (TNF-α; [5]): 26%; inhibition in vivo at 5 mg/kg (TNF-α; [4]): 25%; inhibition in vivo at 10 mg/kg (TNF-α): -85% |
| CN1CCC(Nc2n[nH]c(-c3ccc(Cl)cc3)c2-c2ccncc2)CC1 [Example A-334, N-[5-(4-chlorophenyl)-4-(4-pyridinyl)-1H-pyrazol-3-yl]-1-methyl-4-piperidinamine] | 70 nM | 220 nM |  |  |  | inhibition in vivo at 1 mg/kg (TNF-α; [3]): 36%; inhibition in vivo at 5 mg/kg (TNF-α; [4]): 57%; inhibition in vivo at 20 mg/kg (TNF-α; Table 8, dose 20.0 mg/kg): 95% |
| Clc1ccc(-c2[nH]nc(N3CCN(c4ccccc4)CC3)c2-c2ccncc2)cc1 [Example A-335, 1-[5-(4-chlorophenyl)-4-(4-pyridinyl)-1H-pyrazol-3-yl]-4-phenylpiperazine] | 89900 nM | > 25000 nM |  |  |  |  |
| CCOC(=O)N1CCC(Nc2n[nH]c(-c3ccc(F)cc3)c2-c2ccncc2)CC1 [Example A-337, Ethyl 4-[[5-(4-fluorophenyl)-4-(4-pyridinyl)-1H-pyrazol-3-yl]amino]-1-piperidinecarboxylate, monohydrate] | 1350 nM | > 25000 nM |  |  |  |  |
| CN1CCC(Nc2n[nH]c(-c3ccc(F)cc3)c2-c2ccncc2)CC1 [Example A-338, N-[5-(4-fluorophenyl)-4-(pyridinyl)-1H-pyrazol-3-yl]-1-methyl-4-piperidinamine] | 18 nM | 59 nM |  |  |  |  |
| Fc1ccc(-c2[nH]nc(NC3CCNCC3)c2-c2ccncc2)cc1 [Example A-339, N-[5-(4-fluorophenyl)-4-(4-pyridinyl)-1H-pyrazol-3-yl]-4-piperidinamine, trihydrochloride] | 52 nM | 56 nM |  |  |  |  |
| Fc1ccc(-c2n[nH]cc2-c2ccnc(NCC3CCNCC3)c2)cc1 [Example A-351, 4-[3-(4-fluorophenyl)-1H-pyrazol-4-yl]-N-(4-piperidinylmethyl)-2-pyridinamine] |  |  | 270 nM | 490 nM | 0% |  |
| CCN(CC)CC(Nc1cc(-c2c[nH]nc2-c2ccc(F)cc2)ccn1)c1ccccc1 (stereo not drawn) [Example A-353, N2,N2-diethyl-N1-[4-[3-(4-fluorophenyl)-1H-pyrazol-4-yl]-2-pyridinyl]-1-phenyl-1,2-ethanediamine] |  |  | 37 nM | 5300 nM | 49% |  |
| CC(C)C[C@@H](CO)Nc1cc(-c2c[nH]nc2-c2ccc(F)cc2)ccn1 [Example A-354, (2S)-2-[[4-[3-(4-fluorophenyl)-1H-pyrazol-4-yl]-2-pyridinyl]amino]-4-methyl-1-pentanol] |  |  | 220 nM | 25000 nM | 0% |  |
| CC(C)C(CO)Nc1cc(-c2c[nH]nc2-c2ccc(F)cc2)ccn1 (stereo not drawn) [Example A-355, 2-[[4-[3-(4-fluorophenyl)-1H-pyrazol-4-yl]-2-pyridinyl]amino]-3-methyl-1-butanol] |  |  | 50 nM | 95 nM |  | inhibition in vivo at 26 mg/kg (TNF-α; Table 9, dose 26 mg/kg): 0% |
| CCOC(=O)N1CCC(Nc2cc(-c3c[nH]nc3-c3ccc(F)cc3)ccn2)CC1 [Example A-356, ethyl 4-[[4-[3-(4-fluorophenyl)-1H-pyrazol-4-yl]-2-pyridinyl]amino]-1-piperidinecarboxylate] |  |  | < 10 nM | 5300 nM | 73% |  |
| Fc1ccc(-c2n[nH]c(N3CCC(N4CCCC4)CC3)c2-c2ccncc2)cc1 [Example A-357, 4-[3-(4-fluorophenyl)-5-(4-(1-pyrrolidinyl)-1-piperidinyl]-1H-pyrazol-4-yl]pyridine, trihydrochloride] |  |  | 120 nM | 250 nM | 74% |  |
| CCN1CCCCC1CCNc1cc(-c2c[nH]nc2-c2ccc(F)cc2)ccn1 (stereo not drawn) [Example A-358, N-[2-(1-ethyl-2-piperidinyl)ethyl]-4-[3-(4-fluorophenyl)-1H-pyrazol-4-yl]-2-pyridinamine] |  |  | 230 nM | 4000 nM | 71% |  |
| CCN(CC)CCCC(C)Nc1[nH]nc(-c2ccc(F)cc2)c1-c1ccncc1 (stereo not drawn) [Example A-359, N1,N1,-diethyl-N4-[5-(4-fluorophenyl)-4-(4-pyridinyl)-1H-pyrazol-3-yl]-1,4-pentanediamine] |  |  | 300 nM | 1000 nM | 70% |  |
| CN(C)C1CCN(c2[nH]nc(-c3ccc(F)cc3)c2-c2ccncc2)CC1 [Example A-360, 1-[5-(4-fluorophenyl)-4-(4-pyridinyl)-1H-pyrazol-3-yl]-N,N-dimethyl-4-piperidinamine, trihydrochloride] |  |  | 60 nM | 500 nM | 95% | inhibition in vivo at 1 mg/kg (TNF-α; Table 9, dose 1 mg/kg, read-out: Rat LPS Assay % Inhibition): 0%; inhibition in vivo at 5 mg/kg (TNF-α; Table 9, dose 5 mg/kg, read-out: Rat LPS Assay % Inhibition): 14% |
| OC[C@@H](Nc1cc(-c2c[nH]nc2-c2ccc(F)cc2)ccn1)c1ccccc1 [Example A-362, (βS)-β-[[4-[3-(4-fluorophenyl)-1H-pyrazol-4-yl]-2-pyridinyl]amino]benzene ethanol] |  |  | 690 nM | 5500 nM | 0% |  |
| CS(=O)(=O)c1[nH]nc(-c2ccc(F)cc2)c1-c1ccncc1 [Example A-437, 3-(4-fluorophenyl)-5-(methylsulfonyl)-4-pyridin-4-yl-1H-pyrazole] |  |  |  |  |  | IC50 ([1]; Table 10, 10% DMSO, @ 1.0 hour): 7760 nM; IC50 (human TNF; [7]): > 25000 nM |
| Clc1ccc(-c2n[nH]c(SCCN3CCCC3)c2-c2ccncc2)cc1 [Example A-460] |  |  |  |  |  | IC50 ([1]; Table 10, 10% DMSO, @ 1.0 hour): 1840 nM; IC50 (human TNF; [7]): 8910 nM |
| O=C(CO)N1CCC(c2[nH]nc(-c3cccc(C(F)(F)F)c3)c2-c2ccncn2)CC1 [Example D-13] |  |  |  |  |  | IC50 (human p38 kinase alpha): 330 nM; IC50 (human TNF; TNF production, LPS-stimulated human whole blood, read-out: HWB IC50): 8360 nM; inhibition in vivo at 1 mg/kg (TNF-α; 1.0 mg/kg oral gavage, 4 hours before LPS challenge, read-out: ratLPS/% Inh @1.0 (mg/kg)): 53%; inhibition in vivo at 5 mg/kg (TNF-α; 5.0 mg/kg oral gavage, 4 hours before LPS challenge, read-out: ratLPS/% Inh @5.0 (mg/kg)): 87% |
